In PubChem BioAssay AID330 (DTP/NCI, 2004):
Values joined by “and” are separate entries in the source; they are usually repeats but may differ in a detail not shown here. Identical values can stand only once. Toxic doses and inconclusive results are not listed. Peptide text beside a SMILES is read from it. * marks the point of attachment. Cbz = O=C(OCc1ccccc1)*

System: P388 leukemia ip, CD2F1 mice, survival T/C
Assay: NCI In Vivo Anticancer Drug Screen. Data for tumor model P388 Leukemia (intraperitoneal) in CD2F1 (CDF1) mice
Conditions: endpoint: median survival time, higher = longer survival
How it was run: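 Mice carrying the transplanted tumor received test compound or vehicle. Survival was recorded in each group, and the value is the treated-group measurement divided by that of the vehicle-treated control group.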

[1] = dose: 60.0 mg/kg/injection, schedule: Q01DX005 (ip), vehicle: saline
[2] = dose: 120.0 mg/kg/injection, schedule: Q01DX005 (ip), vehicle: saline
[3] = dose: 25.0 mg/kg/injection, schedule: Q01DX005 (ip), vehicle: saline with Tween-80
[4] = dose: 50.0 mg/kg/injection, schedule: Q01DX005 (ip), vehicle: saline
[5] = dose: 100.0 mg/kg/injection, schedule: Q01DX005 (ip), vehicle: saline with Tween-80
[6] = dose: 50.0 mg/kg/injection, schedule: Q01DX005 (ip), vehicle: Klucel (hydroxypropylcellulose) (HPC)
[7] = dose: 100.0 mg/kg/injection, schedule: Q01DX005 (ip), vehicle: Klucel (hydroxypropylcellulose) (HPC)
[8] = dose: 200.0 mg/kg/injection, schedule: Q01DX005 (ip), vehicle: Klucel (hydroxypropylcellulose) (HPC)
[9] = dose: 50.0 mg/kg/injection, schedule: Q01DX009 (ip), vehicle: saline
[10] = dose: 100.0 mg/kg/injection, schedule: Q01DX009 (ip), vehicle: saline
[11] = dose: 200.0 mg/kg/injection, schedule: Q01DX009 (ip), vehicle: saline
[12] = dose: 50.0 mg/kg/injection, schedule: Q01DX005 (ip), vehicle: saline with Tween-80
[13] = dose: 200.0 mg/kg/injection, schedule: Q01DX005 (ip), vehicle: saline with Tween-80
[14] = dose: 25.0 mg/kg/injection, schedule: Q01DX009 (ip), vehicle: water
[15] = dose: 50.0 mg/kg/injection, schedule: Q01DX009 (ip), vehicle: saline with Tween-80
[16] = dose: 100.0 mg/kg/injection, schedule: Q01DX009 (ip), vehicle: saline with Tween-80
[17] = dose: 200.0 mg/kg/injection, schedule: Q01DX009 (ip), vehicle: saline with Tween-80

SMILES: CCN(CC)c1cc(=O)nc2ccccn12
- T/C [1]: 100 % of control
- T/C [2]: 99 % of control
- T/C (dose: 240.0 mg/kg/injection, schedule: Q01DX005 (ip), vehicle: saline): 106 % of control

SMILES: NC(=S)N/N=C/c1ccc(-c2ccccc2)cc1
- T/C (dose: 12.5 mg/kg/injection, schedule: Q04DX003 (ip), vehicle: saline with Tween-80): 110 % of control
- T/C (dose: 25.0 mg/kg/injection, schedule: Q04DX003 (ip), vehicle: saline with Tween-80): 120 % of control
- T/C (dose: 50.0 mg/kg/injection, schedule: Q04DX003 (ip), vehicle: saline with Tween-80): 100 % of control

SMILES: COc1cc2c[n+](C)c3c(c2cc1OC)Cc1cc2c(cc1-3)OCO2
- T/C [3]: 151 % of control
- T/C [4]: 174 % of control
- T/C [5]: 168 % of control

SMILES: N#CCOC1OC(CO)C(O)C(O)C1O (stereo not drawn)
- T/C [6]: 100 % of control
- T/C [7]: 99 % of control
- T/C [8]: 99 % of control

SMILES: CSCCCCN=[N+]=[N-]
- T/C [1]: 104 % of control
- T/C [2]: 112 % of control

SMILES: Cc1ccc(OCCCCBr)c(Br)c1
- T/C [6]: 105 % of control
- T/C [7]: 101 % of control
- T/C [8]: 97 % of control

SMILES: O=C1C(Cl)=C(Cl)C(=O)C2=C1C1c3ccccc3C2c2ccccc21
- T/C (dose: 100.0 mg/kg/injection, schedule: Q01DX009 (ip), vehicle: saline sonified): 105 % of control
- T/C (dose: 200.0 mg/kg/injection, schedule: Q01DX009 (ip), vehicle: saline sonified): 110 % of control
- T/C (dose: 400.0 mg/kg/injection, schedule: Q01DX009 (ip), vehicle: saline sonified): 100 % of control

SMILES: Clc1cnc(/N=C/c2ccc(/C=N/c3ncc(Cl)cc3Cl)cc2)c(Cl)c1
- T/C [9]: 100 % of control
- T/C [10]: 101 % of control
- T/C [11]: 102 % of control

SMILES: CN(C(=S=O)c1ccccc1)c1ccccc1
- T/C [9]: 109 % of control
- T/C [10]: 104 % of control
- T/C [11]: 106 % of control

SMILES: CN1C(c2ccccc2)CC(=NOCc2ccccc2)CC1c1ccccc1 (stereo not drawn)
- T/C [12]: 98 % of control
- T/C [5]: 96 % of control
- T/C [13]: 89 % of control

SMILES: COc1ccc(/C=C2\N=C(c3ccccc3)OC2=O)c(OCc2ccccc2)c1
- T/C (dose: 12.5 mg/kg/injection, schedule: Q01DX009 (ip), vehicle: other): 88 % of control
- T/C (dose: 25.0 mg/kg/injection, schedule: Q01DX009 (ip), vehicle: other): 89 % of control
- T/C (dose: 100.0 mg/kg/injection, schedule: Q01DX009 (ip), vehicle: other): 88 % of control
- T/C (dose: 200.0 mg/kg/injection, schedule: Q01DX009 (ip), vehicle: other): 94 % of control

SMILES: Cc1cc(C)c(COCc2cc(C)c(C)cc2C)cc1C
- T/C [14]: 86 % of control
- T/C (dose: 100.0 mg/kg/injection, schedule: Q01DX009 (ip), vehicle: water): 90 % of control
- T/C (dose: 200.0 mg/kg/injection, schedule: Q01DX009 (ip), vehicle: water): 106 % of control
- T/C (dose: 400.0 mg/kg/injection, schedule: Q01DX009 (ip), vehicle: water): 104 % of control

SMILES: CCOC(CNc1c[nH]c(=O)[nH]c1=O)OCC
- T/C [15]: 100 % of control
- T/C [16]: 100 % of control
- T/C [17]: 103 % of control
- T/C (dose: 400.0 mg/kg/injection, schedule: Q01DX009 (ip), vehicle: saline with Tween-80): 100 % of control

SMILES: CCOC(=O)N1C=CC(C2C=CN(C(=O)OCC)C=C2)C=C1
- T/C (dose: 10.0 mg/kg/injection, schedule: Q01DX009 (ip), vehicle: saline with Tween-80): 111 % of control
- T/C (dose: 20.0 mg/kg/injection, schedule: Q01DX009 (ip), vehicle: saline with Tween-80): 96 % of control
- T/C (dose: 40.0 mg/kg/injection, schedule: Q01DX009 (ip), vehicle: saline with Tween-80): 105 % of control

SMILES: CC(CC(C)C1CO1)C(=O)C(C)S(=O)(=O)c1ccccc1 (stereo not drawn) (tested in a mixture with another compound)
- T/C [12]: 104 % of control
- T/C [5]: 88 % of control
- T/C [13]: 102 % of control

SMILES: CCCCC(=S)SSC(C)(C)C
- T/C (dose: 12.5 mg/kg/injection, schedule: Q01DX005 (ip), vehicle: saline with Tween-80): 108 % of control
- T/C [3]: 115 % of control
- T/C [12]: 100 % of control and 114 % of control

SMILES: Cl.O=C([O-])C1C[SH+]C(C(O)C(O)C(O)C(O)CO)N1.O=C([O-])C1C[SH+]C(C(O)C(O)C(O)C(O)CO)N1.[Pd+2] (stereo not drawn)
- T/C (dose: 100.0 mg/kg/injection, schedule: Q01DX001 (ip), vehicle: saline): 103 % of control
- T/C (dose: 200.0 mg/kg/injection, schedule: Q01DX001 (ip), vehicle: saline): 104 % of control
- T/C (dose: 400.0 mg/kg/injection, schedule: Q01DX001 (ip), vehicle: saline): 95 % of control

SMILES: COC1/C=C/OC2(C)Oc3c(C)c(O)c4c(O)c(c(/C=N/N5C(C)CN(Cc6ccc(NC(C)=O)cc6)CC5C)c(O)c4c3C2=O)NC(=O)C(C)=C/C=C/C(C)C(O)C(C)C(O)C(C)C(OC(C)=O)C1C (stereo not drawn)
- T/C (dose: 12.5 mg/kg/injection, schedule: Q01DX009 (ip), vehicle: suspension in saline): 110 % of control
- T/C (dose: 25.0 mg/kg/injection, schedule: Q01DX009 (ip), vehicle: saline with Tween-80): 119 % of control
- T/C (dose: 25.0 mg/kg/injection, schedule: Q01DX009 (ip), vehicle: suspension in saline): 110 % of control
- T/C [15]: 99 % of control
- T/C (dose: 50.0 mg/kg/injection, schedule: Q01DX009 (ip), vehicle: suspension in saline): 108 % of control
- T/C [16]: 99 % of control and 103 % of control
- T/C (dose: 100.0 mg/kg/injection, schedule: Q01DX009 (ip), vehicle: suspension in saline): 99 % of control
- T/C [17]: 110 % of control and 119 % of control

SMILES: O=C(NC(Cc1ccc(O)cc1)C(=O)NC(CO)C(=O)O)OCc1ccccc1 (stereo not drawn) (Cbz-Tyr-Ser-OH; configuration not given here)
- T/C [12]: 101 % of control
- T/C [5]: 101 % of control
- T/C [13]: 106 % of control

SMILES: O=C1NC(=O)C(C2CCOC2=O)N1 (stereo not drawn)
- T/C [15]: 106 % of control
- T/C [16]: 102 % of control
- T/C [17]: 106 % of control

SMILES: CCCc1nc(N)[nH]c(=O)c1CCCCc1ccccc1
- T/C (dose: 60.0 mg/kg/injection, schedule: Q01DX005 (ip), vehicle: saline with Tween-80): 90 % of control and 96 % of control
- T/C (dose: 120.0 mg/kg/injection, schedule: Q01DX005 (ip), vehicle: saline with Tween-80): 88 % of control and 103 % of control
- T/C (dose: 240.0 mg/kg/injection, schedule: Q01DX005 (ip), vehicle: saline with Tween-80): 96 % of control and 87 % of control

SMILES: COc1cccc2c1C(=O)c1c(O)c3c(c(O)c1C2=O)CC(O)(C(C)=O)CC3OC1CC([N+](C)(C)C)C(O)C(C)O1 (stereo not drawn)
- T/C (dose: 1.56 mg/kg/injection, schedule: Q01DX009 (ip), vehicle: water): 101 % of control
- T/C (dose: 3.12 mg/kg/injection, schedule: Q01DX009 (ip), vehicle: water): 90 % of control
- T/C (dose: 3.13 mg/kg/injection, schedule: Q01DX009 (ip), vehicle: water): 113 % of control
- T/C (dose: 6.25 mg/kg/injection, schedule: Q01DX009 (ip), vehicle: water): 118 % of control
- T/C (dose: 12.5 mg/kg/injection, schedule: Q01DX009 (ip), vehicle: water): 110 % of control and 112 % of control
- T/C [14]: 111 % of control and 120 % of control

SMILES: CCCCc1cc2ccccc2c(OCCN(C)C)n1
- T/C [4]: 97 % of control
- T/C (dose: 100.0 mg/kg/injection, schedule: Q01DX005 (ip), vehicle: saline): 115 % of control
- T/C (dose: 200.0 mg/kg/injection, schedule: Q01DX005 (ip), vehicle: saline): 111 % of control

SMILES: CC1(CCc2ccc(N(CCCl)CCCl)cc2)NC(=O)NC1=O (stereo not drawn)
- T/C (dose: 3.13 mg/kg/injection, schedule: Q01DX009 (ip), vehicle: Klucel (hydroxypropylcellulose) (HPC)): 105 % of control
- T/C (dose: 6.25 mg/kg/injection, schedule: Q01DX009 (ip), vehicle: Klucel (hydroxypropylcellulose) (HPC)): 103 % of control
- T/C (dose: 12.5 mg/kg/injection, schedule: Q01DX009 (ip), vehicle: Klucel (hydroxypropylcellulose) (HPC)): 103 % of control
- T/C (dose: 50.0 mg/kg/injection, schedule: Q01DX009 (ip), vehicle: Klucel (hydroxypropylcellulose) (HPC)): 103 % of control

SMILES: CN(Cc1cnc2nc(N)nc(N)c2c1)c1ccc(C(=O)NC(CCC(=O)O)C(=O)O)cc1 (stereo not drawn)
- T/C (dose: 0.25 mg/kg/injection, schedule: Q01DX005 (ip), vehicle: other): 123 % of control
- T/C (dose: 1.0 mg/kg/injection, schedule: Q01DX005 (ip), vehicle: other): 154 % of control
- T/C (dose: 2.0 mg/kg/injection, schedule: Q01DX005 (ip), vehicle: other): 150 % of control and 170 % of control
- T/C (dose: 4.0 mg/kg/injection, schedule: Q01DX005 (ip), vehicle: other): 166 % of control and 186 % of control and 197 % of control
- T/C (dose: 6.0 mg/kg/injection, schedule: Q01DX005 (ip), vehicle: other): 197 % of control
